Experimental data published in patent US4061645A, “2-Trichloromethyl-5-methylsulfinyl-1,3,4-thiadiazole” (Schering Aktiengesellschaft, priority 1972, dated 1977).

The compounds below were run on Asperqilus niger (assay: Agar test (Example 7), Aspergillus). Conditions: 10 ppm; 5 days at 22° C; control 100.
Assay type: cell-based
Experimental: (§1) The fungicidal action of the agents according to the invention was tested in artificial nutrient media against plant-pathogenic fungi in Petri dishes (agar test). The procedure was to sterilize the medium consisting of 2% malt extract and 1.5% agar-agar powder. Before the solidification of the medium, the active substances were added to it, mixing thoroughly, so that the medium received 10 parts of active substance per million (ppm). After the solidification of the medium, the latter was inoculated with a platinum dropper which contained 100 spores each of the fungi to be tested, and after five days at 22° C, an evaluation was made by measuring the diameter of the colonies in mm.
CC(C)S(=O)(=O)c1nnc(C(Cl)(Cl)Cl)s1 [Compound 24, 2-trichloromethyl-5-isopropylsulfonyl-1,3,4-thiadiazole] was tested, and the “diameter of the colonies” value was 0 mm.
CCCCS(=O)(=O)c1nnc(C(Cl)(Cl)Cl)s1 [Compound 25, 2-trichloromethyl-5-butylsulfonyl-1,3,4-thiadiazole] was tested, and the “diameter of the colonies” value was 0 mm.
With CCCCCS(=O)(=O)c1nnc(C(Cl)(Cl)Cl)s1 [Compound 26, 2-trichloromethyl-5-amylsulfonyl-1,3,4-thiadiazole] the “diameter of the colonies” value was 0 mm.
CCCCCCS(=O)(=O)c1nnc(C(Cl)(Cl)Cl)s1 [Compound 27, 2-trichloromethyl-5-hexylsulfonyl-1,3,4-thiadiazole] was tested, and the “diameter of the colonies” value was 0 mm.
In the case of CCCCCCCS(=O)(=O)c1nnc(C(Cl)(Cl)Cl)s1 [Compound 28, 2-trichloromethyl-5-heptylsulfonyl-1,3,4-thiadiazole], the “diameter of the colonies” value was 0 mm.
In the case of CCCCCCCCS(=O)(=O)c1nnc(C(Cl)(Cl)Cl)s1 [Compound 29, 2-trichloromethyl-5-octylsulfonyl-1,3,4-thiadiazole], the “diameter of the colonies” value was 19 mm.
With CS(=O)(=O)c1nnc(C(Br)Br)s1 [Compound 32, 2-dibromomethyl-5-methylsulfonyl-1,3,4-thiadiazole] the “diameter of the colonies” value was 0 mm.
For S=C([S-])NCCNC(=S)[S-].[Zn+2] [Zinc ethylene-bis-dithiocarbamate, zinc-ethylene-bis-dithiocarbamate, reference compound], the “diameter of the colonies” value was 78 mm.

These compounds were tested on Helminthosporium sativum (assay: Agar test (Example 7), Helminthosporium). Conditions: 10 ppm; 5 days at 22° C; control 100.
Assay type: cell-based
Experimental: as §1
In the case of CC(C)S(=O)(=O)c1nnc(C(Cl)(Cl)Cl)s1 [Compound 24, 2-trichloromethyl-5-isopropylsulfonyl-1,3,4-thiadiazole], the “diameter of the colonies” value was 0 mm.
In the case of CCCCS(=O)(=O)c1nnc(C(Cl)(Cl)Cl)s1 [Compound 25, 2-trichloromethyl-5-butylsulfonyl-1,3,4-thiadiazole], the “diameter of the colonies” value was 0 mm.
CCCCCS(=O)(=O)c1nnc(C(Cl)(Cl)Cl)s1 [Compound 26, 2-trichloromethyl-5-amylsulfonyl-1,3,4-thiadiazole] was tested, and the “diameter of the colonies” value was 0 mm.
CCCCCCS(=O)(=O)c1nnc(C(Cl)(Cl)Cl)s1 [Compound 27, 2-trichloromethyl-5-hexylsulfonyl-1,3,4-thiadiazole] was tested, and the “diameter of the colonies” value was 0 mm.
With CCCCCCCS(=O)(=O)c1nnc(C(Cl)(Cl)Cl)s1 [Compound 28, 2-trichloromethyl-5-heptylsulfonyl-1,3,4-thiadiazole] the “diameter of the colonies” value was 0 mm.
For CCCCCCCCS(=O)(=O)c1nnc(C(Cl)(Cl)Cl)s1 [Compound 29, 2-trichloromethyl-5-octylsulfonyl-1,3,4-thiadiazole], the “diameter of the colonies” value was 0 mm.
CS(=O)(=O)c1nnc(C(Br)Br)s1 [Compound 32, 2-dibromomethyl-5-methylsulfonyl-1,3,4-thiadiazole] was tested, and the “diameter of the colonies” value was 0 mm.
With S=C([S-])NCCNC(=S)[S-].[Zn+2] [Zinc ethylene-bis-dithiocarbamate, zinc-ethylene-bis-dithiocarbamate, reference compound] the “diameter of the colonies” value was 50 mm.

What follows are compounds tested on Fusarium oxysporum f. callistephi (assay: Fusarium infested compost soil, Callistephus chinesis seedlings (Example 5)). Conditions: 50 mg active ingredient per liter of soil; of 4 seedlings.
Assay type: in vivo
From the text: Steamed compost soil was inoculated with a spore suspension of Fusarium oxysporum f. callistephi. After homogeneous mixture of the products with the infested soil, the products were present as 20% powder preparations, and after a waiting period of 8 days, there were set out per concentration 4 seedlings of Callistephus chinesis, master aster "Sun Ray" as host plants.
For CCCCS(=O)(=O)c1nnc(C(Cl)(Cl)Cl)s1 [Compound 25, 2-trichloromethyl-5-butylsulfonyl-1,3,4-thiadiazole], the “Number of attacked plants after 3 weeks” value was 0.

Same assay, conditions: 100 mg active ingredient per liter of soil; of 4 seedlings
CCCCS(=O)(=O)c1nnc(C(Cl)(Cl)Cl)s1 [Compound 25, 2-trichloromethyl-5-butylsulfonyl-1,3,4-thiadiazole] was tested, and the “Number of attacked plants after 3 weeks” value was 0.

The compounds below were run on Botrytis cinerea (assay: Agar test (Example 7), Botrytis). Conditions: 10 ppm; 5 days at 22° C; control 100.
Assay type: cell-based
Experimental: as §1
CC(C)S(=O)(=O)c1nnc(C(Cl)(Cl)Cl)s1 [Compound 24, 2-trichloromethyl-5-isopropylsulfonyl-1,3,4-thiadiazole] was tested, and the “diameter of the colonies” value was 0 mm.
In the case of CCCCS(=O)(=O)c1nnc(C(Cl)(Cl)Cl)s1 [Compound 25, 2-trichloromethyl-5-butylsulfonyl-1,3,4-thiadiazole], the “diameter of the colonies” value was 0 mm.
CCCCCS(=O)(=O)c1nnc(C(Cl)(Cl)Cl)s1 [Compound 26, 2-trichloromethyl-5-amylsulfonyl-1,3,4-thiadiazole] was tested, and the “diameter of the colonies” value was 0 mm.
With CCCCCCS(=O)(=O)c1nnc(C(Cl)(Cl)Cl)s1 [Compound 27, 2-trichloromethyl-5-hexylsulfonyl-1,3,4-thiadiazole] the “diameter of the colonies” value was 0 mm.
In the case of CCCCCCCS(=O)(=O)c1nnc(C(Cl)(Cl)Cl)s1 [Compound 28, 2-trichloromethyl-5-heptylsulfonyl-1,3,4-thiadiazole], the “diameter of the colonies” value was 0 mm.
CCCCCCCCS(=O)(=O)c1nnc(C(Cl)(Cl)Cl)s1 [Compound 29, 2-trichloromethyl-5-octylsulfonyl-1,3,4-thiadiazole] was tested, and the “diameter of the colonies” value was 18 mm.
With CS(=O)(=O)c1nnc(C(Br)Br)s1 [Compound 32, 2-dibromomethyl-5-methylsulfonyl-1,3,4-thiadiazole] the “diameter of the colonies” value was 0 mm.
With S=C([S-])NCCNC(=S)[S-].[Zn+2] [Zinc ethylene-bis-dithiocarbamate, zinc-ethylene-bis-dithiocarbamate, reference compound] the “diameter of the colonies” value was 36 mm.

What follows are compounds tested on Rhizoctonia solani (assay: Limit concentration of soil-fungicidal effectiveness, Rhizoctonia solani, infested soil seeded with peas (Example 1)). Conditions: soil, 480 h, 20 to 23 days, 22°-25° C, read-out: Limit concentration of the fungicidal effectiveness.
Assay type: in vivo
Experimental: Limit concentrations of the soil-fungicidal effectiveness at homogeneous mixture of the products with the infested soil. Basic condition in the evaluation are a sound root formation without fungus necroses and germination of the seed of at least 90% compared with the result obtained in steamed soil. Per concentration there were seeded 25 grains of peas of the variety "Miracle of Kelvedon" (marrow pea) without a waiting period. The cultivation time in the tests was 20 to 23 days at a temperature of 22°-25° C. Four commercial products were included in the test series.
Rhizoctania solani: -- Steamed compost soil was inoculated with mycelium of Rhizoctonia solani.
In the case of CC(C)S(=O)(=O)c1nnc(C(Cl)(Cl)Cl)s1 [Compound 24, 2-trichloromethyl-5-isopropylsulfonyl-1,3,4-thiadiazole], the minimal effective concentration was 30 µg/mL.
For CCCCS(=O)(=O)c1nnc(C(Cl)(Cl)Cl)s1 [Compound 25, 2-trichloromethyl-5-butylsulfonyl-1,3,4-thiadiazole], the minimal effective concentration was 25 µg/mL.
For CCCCCS(=O)(=O)c1nnc(C(Cl)(Cl)Cl)s1 [Compound 26, 2-trichloromethyl-5-amylsulfonyl-1,3,4-thiadiazole], the minimal effective concentration was 25 µg/mL.
CCCCCCS(=O)(=O)c1nnc(C(Cl)(Cl)Cl)s1 [Compound 27, 2-trichloromethyl-5-hexylsulfonyl-1,3,4-thiadiazole] was tested, and the minimal effective concentration was 25 µg/mL.
CCCCCCCS(=O)(=O)c1nnc(C(Cl)(Cl)Cl)s1 [Compound 28, 2-trichloromethyl-5-heptylsulfonyl-1,3,4-thiadiazole] gave a minimal effective concentration of 200 µg/mL.
Work on CCCCCCCCS(=O)(=O)c1nnc(C(Cl)(Cl)Cl)s1 [Compound 29, 2-trichloromethyl-5-octylsulfonyl-1,3,4-thiadiazole] yielded a minimal effective concentration of over 200 µg/mL.
In the case of CS(=O)(=O)c1nnc(C(Br)Br)s1 [Compound 32, 2-dibromomethyl-5-methylsulfonyl-1,3,4-thiadiazole], the minimal effective concentration was 50 µg/mL.

Each compound was assayed on Pythium ultimum (assay: Pythium ultimum infested compost soil, marrow peas (Example 2)). Conditions: 200 mg active ingr. per liter of soil; 3 weeks.
Assay type: in vivo
From the text: Steamed compost soil was inoculated with mycelium of Pythium ultimum.
S=C([S-])NCCNC(=S)[S-].[Zn+2] [Zinc ethylene-bis-dithiocarbamate, zinc-ethylene-bis-dithiocarbamate, reference compound] was tested, and the “Weight of fresh plant” value was 7 g.

Same assay, conditions: 200 mg active ingr. per liter of soil; of 25 grains
For S=C([S-])NCCNC(=S)[S-].[Zn+2] [Zinc ethylene-bis-dithiocarbamate, zinc-ethylene-bis-dithiocarbamate, reference compound], the “Number of sound peas after 3 wks.” value was 14.

What follows are compounds tested on Stemphylium ilicis (assay: Agar test (Example 7), Stemphylium). Conditions: 10 ppm; 5 days at 22° C; control 100.
Assay type: cell-based
Experimental: as §1
For CC(C)S(=O)(=O)c1nnc(C(Cl)(Cl)Cl)s1 [Compound 24, 2-trichloromethyl-5-isopropylsulfonyl-1,3,4-thiadiazole], the “diameter of the colonies” value was 0 mm.
With CCCCS(=O)(=O)c1nnc(C(Cl)(Cl)Cl)s1 [Compound 25, 2-trichloromethyl-5-butylsulfonyl-1,3,4-thiadiazole] the “diameter of the colonies” value was 0 mm.
For CCCCCS(=O)(=O)c1nnc(C(Cl)(Cl)Cl)s1 [Compound 26, 2-trichloromethyl-5-amylsulfonyl-1,3,4-thiadiazole], the “diameter of the colonies” value was 0 mm.
For CCCCCCS(=O)(=O)c1nnc(C(Cl)(Cl)Cl)s1 [Compound 27, 2-trichloromethyl-5-hexylsulfonyl-1,3,4-thiadiazole], the “diameter of the colonies” value was 0 mm.
For CCCCCCCS(=O)(=O)c1nnc(C(Cl)(Cl)Cl)s1 [Compound 28, 2-trichloromethyl-5-heptylsulfonyl-1,3,4-thiadiazole], the “diameter of the colonies” value was 0 mm.
CCCCCCCCS(=O)(=O)c1nnc(C(Cl)(Cl)Cl)s1 [Compound 29, 2-trichloromethyl-5-octylsulfonyl-1,3,4-thiadiazole] was tested, and the “diameter of the colonies” value was 0 mm.
With CS(=O)(=O)c1nnc(C(Br)Br)s1 [Compound 32, 2-dibromomethyl-5-methylsulfonyl-1,3,4-thiadiazole] the “diameter of the colonies” value was 0 mm.
In the case of S=C([S-])NCCNC(=S)[S-].[Zn+2] [Zinc ethylene-bis-dithiocarbamate, zinc-ethylene-bis-dithiocarbamate, reference compound], the “diameter of the colonies” value was 55 mm.

Each compound was assayed on Colletotrichum gloeosporioides (assay: Agar test (Example 7), Colletotrichum). Conditions: 10 ppm; 5 days at 22° C; control 100.
Assay type: cell-based
Experimental: as §1
CC(C)S(=O)(=O)c1nnc(C(Cl)(Cl)Cl)s1 [Compound 24, 2-trichloromethyl-5-isopropylsulfonyl-1,3,4-thiadiazole] was tested, and the “diameter of the colonies” value was 0 mm.
With CCCCS(=O)(=O)c1nnc(C(Cl)(Cl)Cl)s1 [Compound 25, 2-trichloromethyl-5-butylsulfonyl-1,3,4-thiadiazole] the “diameter of the colonies” value was 0 mm.
CCCCCS(=O)(=O)c1nnc(C(Cl)(Cl)Cl)s1 [Compound 26, 2-trichloromethyl-5-amylsulfonyl-1,3,4-thiadiazole] was tested, and the “diameter of the colonies” value was 0 mm.
For CCCCCCS(=O)(=O)c1nnc(C(Cl)(Cl)Cl)s1 [Compound 27, 2-trichloromethyl-5-hexylsulfonyl-1,3,4-thiadiazole], the “diameter of the colonies” value was 0 mm.
With CCCCCCCS(=O)(=O)c1nnc(C(Cl)(Cl)Cl)s1 [Compound 28, 2-trichloromethyl-5-heptylsulfonyl-1,3,4-thiadiazole] the “diameter of the colonies” value was 0 mm.
For CCCCCCCCS(=O)(=O)c1nnc(C(Cl)(Cl)Cl)s1 [Compound 29, 2-trichloromethyl-5-octylsulfonyl-1,3,4-thiadiazole], the “diameter of the colonies” value was 0 mm.
For CS(=O)(=O)c1nnc(C(Br)Br)s1 [Compound 32, 2-dibromomethyl-5-methylsulfonyl-1,3,4-thiadiazole], the “diameter of the colonies” value was 0 mm.
For S=C([S-])NCCNC(=S)[S-].[Zn+2] [Zinc ethylene-bis-dithiocarbamate, zinc-ethylene-bis-dithiocarbamate, reference compound], the “diameter of the colonies” value was 81 mm.
